Reference: paper PMC12667198, “Menthol‐like cooling compounds, including (R)‐(‐)‐carvone, inhibit the human bitter taste receptors for saccharin and acesulfame K” (FEBS Open Bio, 2025)

target: T1, TAS2R31 (Homo sapiens, UniProt P59538); assay: luminescence (mt-apoclytin II) Ca2+ assay, HEK293T; assay type: cell-based
T1 construct: pEAK10; transient in HEK293T with chimeric G protein Galpha16gust44 (and mt-apoclytin II reporter)
T1 sequence (P59538 1-309): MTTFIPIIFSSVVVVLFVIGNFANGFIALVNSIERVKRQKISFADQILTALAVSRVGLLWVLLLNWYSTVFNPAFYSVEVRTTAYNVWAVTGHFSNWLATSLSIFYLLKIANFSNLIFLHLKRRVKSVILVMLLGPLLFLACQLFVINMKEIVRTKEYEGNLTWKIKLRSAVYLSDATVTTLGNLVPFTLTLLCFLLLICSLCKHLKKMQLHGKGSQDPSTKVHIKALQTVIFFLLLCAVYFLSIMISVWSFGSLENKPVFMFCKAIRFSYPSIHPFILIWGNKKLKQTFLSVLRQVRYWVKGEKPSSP

IC50 | SMILES
310 ± 58 µM | CC(C)[C@@H]1CC[C@@H](C)C[C@H]1O [(−)‐menthol]
290 ± 47 µM | CC(C)=C1CC[C@@H](C)CC1=O [(+)‐pulegone]
570 ± 100 µM | CC(C)[C@@H]1CC[C@@H](C)CC1=O [menthone]
180 ± 19 µM | CC1=CC(=O)[C@@H](C(C)C)CC1 [(R)‐(‐)‐piperitone]
86 µM | C=C(C)[C@@H]1CC=C(C)C(=O)C1 [(R)‐(‐)‐carvone]
220 ± 15 µM | CC(C)[C@H]1CC[C@H](C)C[C@@H]1O [(+)‐menthol]
